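Method: 48-hour compound exposure of cells in 96-well plates, five concentrations, linear interpolation of endpoints. Definition used: TGI = concentration required for complete inhibition of growth.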
Assays:
Experiment in all cases: NCI tumour cell line growth inhibition, 48 h
HCC-2998 colon = system: HCC-2998 colon
SF-295 CNS = system: SF-295 CNS
NCI-H23 lung = system: NCI-H23 lung
COLO 205 colon = system: COLO 205 colon
CCRF-CEM leukemia = system: CCRF-CEM leukemia
A498 renal = system: A498 renal
UACC-62 melanoma = system: UACC-62 melanoma
T-47D breast = system: T-47D breast
OVCAR-8 ovarian = system: OVCAR-8 ovarian
MCF7 breast = system: MCF7 breast
TK-10 renal = system: TK-10 renal
A549 NSCLC = system: A549 NSCLC
PC-3 prostate = system: PC-3 prostate
HT29 colon = system: HT29 colon
HL-60(TB) leukemia = system: HL-60(TB) leukemia
NCI-H460 lung = system: NCI-H460 lung
MDA-N = system: MDA-N
RPMI-8226 leukemia = system: RPMI-8226 leukemia
BT-549 breast = system: BT-549 breast
ACHN renal = system: ACHN renal
HCT-116 colon = system: HCT-116 colon
MALME-3M melanoma = system: MALME-3M melanoma
786-0 renal = system: 786-0 renal
SK-MEL-28 melanoma = system: SK-MEL-28 melanoma
UACC-257 melanoma = system: UACC-257 melanoma
OVCAR-5 ovarian = system: OVCAR-5 ovarian
OVCAR-3 ovarian = system: OVCAR-3 ovarian
M14 melanoma = system: M14 melanoma
NCI-H522 lung = system: NCI-H522 lung
MDA-MB-231 breast = system: MDA-MB-231 breast
CAKI-1 renal = system: CAKI-1 renal
IGROV1 ovarian = system: IGROV1 ovarian
RXF 393 renal = system: RXF 393 renal
NCI-H226 lung = system: NCI-H226 lung
SNB-19 CNS = system: SNB-19 CNS
SK-MEL-2 melanoma = system: SK-MEL-2 melanoma
OVCAR-4 ovarian = system: OVCAR-4 ovarian
NCI/ADR-RES ovarian = system: NCI/ADR-RES ovarian
SN12C renal = system: SN12C renal
U251 CNS = system: U251 CNS
HS 578T breast = system: HS 578T breast
HOP-62 NSCLC = system: HOP-62 NSCLC
SW-620 colon = system: SW-620 colon
SK-OV-3 ovarian = system: SK-OV-3 ovarian
K-562 leukemia = system: K-562 leukemia
EKVX NSCLC = system: EKVX NSCLC
HCT-15 colon = system: HCT-15 colon
LOX IMVI melanoma = system: LOX IMVI melanoma
DU-145 prostate = system: DU-145 prostate
SNB-75 CNS = system: SNB-75 CNS
MOLT-4 leukemia = system: MOLT-4 leukemia
SF-268 CNS = system: SF-268 CNS
KM12 colon = system: KM12 colon
MDA-MB-435 = system: MDA-MB-435
SR leukemia = system: SR leukemia
SF-539 CNS = system: SF-539 CNS
HOP-92 NSCLC = system: HOP-92 NSCLC
SK-MEL-5 melanoma = system: SK-MEL-5 melanoma
UO-31 renal = system: UO-31 renal

Measured: TGI

CCO/C(O)=C(/C(=N)N1CCOCC1)C(=O)Nc1ccc(F)cc1
not listed: SR leukemia | SF-539 CNS | HOP-92 NSCLC | SK-MEL-5 melanoma | UO-31 renal
> 100 µM: all other assays above

CN(CCSCCN(C)C(=O)OC(C)(C)C)C(=O)OC(C)(C)C
not listed: A498 renal | T-47D breast | HL-60(TB) leukemia | RPMI-8226 leukemia | RXF 393 renal | NCI-H226 lung
> 100 µM: all other assays above

CCOC(=O)NC(Nc1ccc(C)cc1)(C(F)(F)F)C(F)(F)F
not listed: UACC-257 melanoma | CAKI-1 renal | RXF 393 renal | SK-MEL-2 melanoma | EKVX NSCLC | SR leukemia
> 100 µM: all other assays above

CC1(C)CC(=O)C(C=NC(=S)c2ccccc2)=C(O)C1
not listed: A498 renal | T-47D breast | RPMI-8226 leukemia | MALME-3M melanoma | RXF 393 renal | K-562 leukemia | SR leukemia
> 100 µM: all other assays above
